In assay [1] the target is T1, human 5-HT2B receptors in a CHO cell line (Homo sapiens, UniProt P41595).
T1 construct: expressed in transfected cells; host or cells: CHO cell line
In words: Binding to 5-HT2B receptor, [3H]-5-HT, Method (b). The settings on record: read-out: Ki (2B). As to the method:
(§1) The binding of compounds of formula (I) to serotonin receptors was determined in vitro by standard methods. The preparations were investigated in accordance with the assays given hereinafter.
Method (b): For the binding to the 5-HT2B receptor the 5-HT2B receptors were radiolabelled with [^3H]-5-HT. The affinity of the compounds for human 5-HT2B receptors in a CHO cell line was determined according to the procedure of K. Schmuck, C. Ullmer, P. Engels and H. Lubbett, FEBS Lett., 1994, 342, 85–90.

For assay [2], the target named is T2, h5-HT2C receptor (CHO cells) (Homo sapiens, UniProt P28335).
T2 construct: expressed in transfected cells; host or cells: CHO cells
T2 sequence (P28335 33-458): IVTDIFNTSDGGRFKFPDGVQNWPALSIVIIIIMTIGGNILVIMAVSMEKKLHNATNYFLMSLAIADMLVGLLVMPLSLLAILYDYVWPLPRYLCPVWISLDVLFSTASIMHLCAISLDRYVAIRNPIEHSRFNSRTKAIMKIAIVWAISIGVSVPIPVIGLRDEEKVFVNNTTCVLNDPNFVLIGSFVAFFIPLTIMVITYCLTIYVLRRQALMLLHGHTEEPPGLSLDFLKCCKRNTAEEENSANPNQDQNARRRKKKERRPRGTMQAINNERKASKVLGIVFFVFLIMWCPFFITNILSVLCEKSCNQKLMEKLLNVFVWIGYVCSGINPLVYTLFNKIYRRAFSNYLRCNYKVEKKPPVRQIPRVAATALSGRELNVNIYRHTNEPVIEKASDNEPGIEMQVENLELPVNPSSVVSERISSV
In words: Functional activity, FLIPR calcium assay, h5-HT2C. It counts as cell-based. Here is the method: (§2) The functional activity of compounds of formula (I) was assayed using a Fluorimetric Imaging Plate reader (FLIPR):
(§3) CHO cells expressing either the h5-HT2C or h5-HT2A receptors were counted and plated into standard 96 well microtitre plates before the day of testing to give a confluent monolayer. The following day the cells were dye loaded with the calcium sensitive dye Fluo 3-AM by incubation with serum free culture maintenance media containing pluronic acid and Fluo 3-AM dissolved in DMSO at 37° C. in a CO2 incubator at 95% humidity for approximately 90 minutes. Unincorporated dye was removed by washing with Hanks balanced salt solution containing 20 mM HEPES and 2.5 mM probenecid (the assay buffer) using an automated cell washer to leave a total volume of 100 μl/well.
(§4) The drug (dissolved in 50 μl of assay buffer) was added at a rate of 70 μl/sec to each well of the FLIPR 96 well plate during fluorescence measurements. The measurements are taken at 1 sec intervals and the maximum fluorescent signal was measured (approx 10–15 secs after drug addition) and compared with the response produced by 10 μM 5-HT (defined as 100%) to which it is expressed as a percentage response (relative efficacy). Dose response curves were constructed using Graphpad Prism (Graph Software Inc.).

Assay [3] deals with T3, h5-HT2A receptor (CHO cells) (Homo sapiens, UniProt P28223).
T3 construct: expressed in transfected cells; host or cells: CHO cells
In words: Functional activity, FLIPR calcium assay, h5-HT2A. Type of assay: cell-based. As to the method: as §2, §3, §4

In assay [4] the target is T4, 5-HT2c receptors in a CHO cell line (Homo sapiens, UniProt P28335).
T4 construct: expressed in transfected cells; host or cells: CHO cell line
T4 sequence (P28335 33-458): T2 sequence (P28335 33-458)
In words: Binding to 5-HT2c receptor, [3H]-5-HT, Method (a). The note with it: read-out: Ki (2C). As to the method: as §1
Method (a): For the binding to the 5-HT2c receptor the 5-HT2c receptors were radiolabelled with [^3H]-5-HT. The affinity of the compounds for 5-HT2c receptors in a CHO cell line was determined according to the procedure of D. Hoyer, G. Engel and H. O. Kalkman, European J. Pharmacol., 1985, 118, 13–23.

Assay [5] has as its system 5-HT2c syndrome (splayed limbs, hunched posture, retro-pulsion). In words: 5-HT2c syndrome, in vivo efficacy of 5-HT2C agonists. The settings on record: rats, 1 mg/kg s.c. As to the method:
The efficacy of 5-HT2C agonists was assessed for ability to induce a specific syndrome.
The 5-HT2c syndrome is a rapid screening method to assess the in vivo efficacy of 5-HT2c agonists through their ability to induce three specific behaviours in rats. The animals are dosed with either a positive control (mCPP), test compound or vehicle, either s.c. or p.o. The animals are observed on an open bench, typically 30, 60 and 180 minutes and the degree of syndrome is assessed over a two minute period on a scale of 0–3 depending on the presence and severity of splayed limbs, hunched posture and retro-pulsion, the three specific behaviours which constitute the syndrome. Data is analysed using Kruskal-Wallis Analysis of Variance followed with appropriate post-hoc tests. All statistical analysis are conducted using Excel version 7.0 (Microsoft Corp.) and Statistica version 5.0 (Stasoft, Inc.).

Assay [6] has as its target T5, 5-HT2A receptors in a CHO cell line (Homo sapiens, UniProt P28223).
T5 construct: expressed in transfected cells; host or cells: CHO cell line
In words: Binding to 5-HT2A receptor, [125I]-DOI, Method (c). The note with it: read-out: Ki (2A). As to the method:
as §1
Method (c): For the binding to the 5-HT2A receptor the 5-HT2A receptors were radiolabelled with […]. The affinity of the compounds for 5-HT2A receptors in a CHO cell line was determined according to the procedure of D. J. McKenna and S. J. Peroutka, J. Neurosci., 1989, 9/10, 3482–90.

Counter-ions that a name gives are not always drawn.

T3 sequence (P28223 whole entry): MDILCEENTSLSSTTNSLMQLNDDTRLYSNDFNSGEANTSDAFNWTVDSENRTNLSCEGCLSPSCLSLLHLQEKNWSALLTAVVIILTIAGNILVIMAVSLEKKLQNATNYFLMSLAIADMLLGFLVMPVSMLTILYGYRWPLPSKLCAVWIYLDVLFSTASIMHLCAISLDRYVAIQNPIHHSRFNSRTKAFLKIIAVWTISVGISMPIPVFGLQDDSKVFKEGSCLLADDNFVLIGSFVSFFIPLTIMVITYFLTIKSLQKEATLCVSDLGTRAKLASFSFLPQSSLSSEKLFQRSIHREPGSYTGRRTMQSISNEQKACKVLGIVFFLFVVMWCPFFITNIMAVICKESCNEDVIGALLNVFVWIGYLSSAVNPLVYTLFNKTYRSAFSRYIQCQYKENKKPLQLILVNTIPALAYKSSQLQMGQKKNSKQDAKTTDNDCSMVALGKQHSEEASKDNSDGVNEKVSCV
T5 sequence (P28223 whole entry): as above
T1 sequence (P41595 whole entry): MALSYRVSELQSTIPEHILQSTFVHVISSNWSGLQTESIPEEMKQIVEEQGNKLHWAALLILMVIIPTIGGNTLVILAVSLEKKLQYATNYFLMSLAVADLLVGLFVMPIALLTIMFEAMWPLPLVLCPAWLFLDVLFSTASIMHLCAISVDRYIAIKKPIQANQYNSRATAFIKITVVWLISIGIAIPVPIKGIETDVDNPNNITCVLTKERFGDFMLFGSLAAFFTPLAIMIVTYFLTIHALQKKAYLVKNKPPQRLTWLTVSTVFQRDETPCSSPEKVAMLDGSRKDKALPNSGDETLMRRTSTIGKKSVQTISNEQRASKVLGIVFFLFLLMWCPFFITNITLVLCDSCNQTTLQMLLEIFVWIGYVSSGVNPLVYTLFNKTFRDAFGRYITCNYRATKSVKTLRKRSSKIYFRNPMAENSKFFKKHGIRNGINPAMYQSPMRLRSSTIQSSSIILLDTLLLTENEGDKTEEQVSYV

Regarding `Clc1ccc2c(c1)N1CCNCC1C2` (racemic) [Example 1, (RS) 7-Chloro-1,2,3,4,10,10a-hexahydropyrazino[1,2-a]indole hydrochloride], the Ki in assay [1] was 32 nM; in assay [4] it was 31 nM; in assay [6], 53 nM. Further, the EC50 in assay [2] was 18 nM; in assay [3], 513 nM. For the same molecule, the Emax in assay [2] (CHO, read-out: h5-HT2C Relative Efficacy) worked out at 91%; in assay [3] (CHO, read-out: h5-HT2A Relative Efficacy), 53%. Moreover, the “time for which significant pharmacological efficacy is maintained (5-HT2c syndrome)” value in assay [5] is “at least 180 minutes”.

In general, Ki refers to the dissociation constant of the complex between target and ligand, obtained from inhibition or displacement. What is called EC50 is the concentration giving half of the maximal effect.
